# Measured values from ChEMBL document CHEMBL3885881, “DrugMatrix”.
# Organism: Rattus norvegicus
# Test: DrugMatrix - Regimen: Daily Repeat
# Assay type: toxicity, organism-based, Sprague-Dawley
# Parameters: regimen Daily Repeat, gender Male, age 6-8 weeks
# Settings: in vivo, po, route oral GAVAGE, vehicle 100 % WATER; for BASOPHIL / EOSINOPHIL / ERYTHROCYTE COUNT / HEMATOCRIT / HEMOGLOBIN / LEUKOCYTE COUNT / LYMPHOCYTE / MEAN CORPUSCULAR HEMOGLOBIN / MEAN CORPUSCULAR HEMOGLOBIN CONCENTRATION / MEAN CORPUSCULAR VOLUME / MONOCYTE / NEUTROPHIL / PLATELET COUNT: tissue Blood; for ALANINE AMINOTRANSFERASE / ALBUMIN / ALKALINE PHOSPHATASE / ASPARTATE AMINOTRANSFERASE / BLOOD UREA NITROGEN / CHLORIDE / CHOLESTEROL / CREATINE PHOSPHOKINASE / CREATININE / GLUCOSE / PHOSPHORUS / POTASSIUM / SODIUM / TOTAL BILIRUBIN / TOTAL PROTEIN: tissue Plasma
# [1] = 0 mg/kg, 72 h, dose level Control, time 3 day
# [2] = 0 mg/kg, 120 h, dose level Control, time 5 day
# [3] = 3 mg/kg, 72 h, dose level Low, time 3 day
# [4] = 3 mg/kg, 120 h, dose level Low, time 5 day
# [5] = 24 mg/kg, 72 h, dose level High, time 3 day
# [6] = 24 mg/kg, 120 h, dose level High, time 5 day
compound,measurement,setting,value
Nc1c2c(nc3ccccc13)CCCC2 [TACRINE],BASOPHIL,[1],0%
same,EOSINOPHIL,[1],0.5%
same,ERYTHROCYTE COUNT,[1],5.8 x10E6/uL
same,HEMATOCRIT,[1],35.07%
same,HEMOGLOBIN,[1],14.12 G/DL
same,LEUKOCYTE COUNT,[1],13.7 x10E3/uL
same,LYMPHOCYTE,[1],82.33%
same,MEAN CORPUSCULAR HEMOGLOBIN,[1],24.38 pg
same,MEAN CORPUSCULAR HEMOGLOBIN CONCENTRATION,[1],40.28 G/DL
same,MEAN CORPUSCULAR VOLUME,[1],60.52 fL
same,MONOCYTE,[1],2.67%
same,NEUTROPHIL,[1],14.5%
same,PLATELET COUNT,[1],911.5 x10E3/uL
same,ALANINE AMINOTRANSFERASE,[1],36.83 u/L
same,ALBUMIN,[1],3.75 G/DL
same,ALKALINE PHOSPHATASE,[1],399.83 u/L
same,ASPARTATE AMINOTRANSFERASE,[1],66 u/L
same,BLOOD UREA NITROGEN,[1],14.67 mg/dL
same,CHLORIDE,[1],101.67 MEQ/L
same,CHOLESTEROL,[1],66.33 mg/dL
same,CREATINE PHOSPHOKINASE,[1],139.5 u/L
same,CREATININE,[1],0.92 mg/dL
same,GLUCOSE,[1],175 mg/dL
same,PHOSPHORUS,[1],11.42 mg/dL
same,POTASSIUM,[1],7.03 MEQ/L
same,SODIUM,[1],148.5 MEQ/L
same,TOTAL BILIRUBIN,[1],1.13 mg/dL
same,TOTAL PROTEIN,[1],6.87 G/DL
same,BASOPHIL,[2],0%
same,EOSINOPHIL,[2],0.2%
same,ERYTHROCYTE COUNT,[2],6.02 x10E6/uL
same,HEMATOCRIT,[2],36.48%
same,HEMOGLOBIN,[2],14.38 G/DL
same,LEUKOCYTE COUNT,[2],12.34 x10E3/uL
same,LYMPHOCYTE,[2],83%
same,MEAN CORPUSCULAR HEMOGLOBIN,[2],23.92 pg
same,MEAN CORPUSCULAR HEMOGLOBIN CONCENTRATION,[2],39.44 G/DL
same,MEAN CORPUSCULAR VOLUME,[2],60.66 fL
same,MONOCYTE,[2],3%
same,NEUTROPHIL,[2],13.8%
same,PLATELET COUNT,[2],1190.6 x10E3/uL
same,ALANINE AMINOTRANSFERASE,[2],43 u/L
same,ALBUMIN,[2],3.73 G/DL
same,ALKALINE PHOSPHATASE,[2],393 u/L
same,ASPARTATE AMINOTRANSFERASE,[2],62.33 u/L
same,BLOOD UREA NITROGEN,[2],16.33 mg/dL
same,CHLORIDE,[2],101.67 MEQ/L
same,CHOLESTEROL,[2],65.5 mg/dL
same,CREATINE PHOSPHOKINASE,[2],130.67 u/L
same,CREATININE,[2],0.58 mg/dL
same,GLUCOSE,[2],180.67 mg/dL
same,PHOSPHORUS,[2],11.28 mg/dL
same,POTASSIUM,[2],7.05 MEQ/L
same,SODIUM,[2],148.17 MEQ/L
same,TOTAL BILIRUBIN,[2],0.72 mg/dL
same,TOTAL PROTEIN,[2],6.83 G/DL
same,BASOPHIL,[3],0%
same,EOSINOPHIL,[3],0.33%
same,ERYTHROCYTE COUNT,[3],5.96 x10E6/uL
same,HEMATOCRIT,[3],36.4%
same,HEMOGLOBIN,[3],14.47 G/DL
same,LEUKOCYTE COUNT,[3],12.6 x10E3/uL
same,LYMPHOCYTE,[3],87.33%
same,MEAN CORPUSCULAR HEMOGLOBIN,[3],24.3 pg
same,MEAN CORPUSCULAR HEMOGLOBIN CONCENTRATION,[3],39.77 G/DL
same,MEAN CORPUSCULAR VOLUME,[3],61.13 fL
same,MONOCYTE,[3],1.67%
same,NEUTROPHIL,[3],10.67%
same,PLATELET COUNT,[3],1303 x10E3/uL
same,ALANINE AMINOTRANSFERASE,[3],36.33 u/L
same,ALBUMIN,[3],3.6 G/DL
same,ALKALINE PHOSPHATASE,[3],362.33 u/L
same,ASPARTATE AMINOTRANSFERASE,[3],59 u/L
same,BLOOD UREA NITROGEN,[3],11.33 mg/dL
same,CHLORIDE,[3],102.67 MEQ/L
same,CHOLESTEROL,[3],64.33 mg/dL
same,CREATINE PHOSPHOKINASE,[3],137.67 u/L
same,CREATININE,[3],0.53 mg/dL
same,GLUCOSE,[3],188 mg/dL
same,PHOSPHORUS,[3],12.8 mg/dL
same,POTASSIUM,[3],7.17 MEQ/L
same,SODIUM,[3],151.33 MEQ/L
same,TOTAL BILIRUBIN,[3],0.37 mg/dL
same,BASOPHIL,[4],0%
same,EOSINOPHIL,[4],0%
same,ERYTHROCYTE COUNT,[4],5.42 x10E6/uL
same,HEMATOCRIT,[4],32.47%
same,HEMOGLOBIN,[4],13.8 G/DL
same,LEUKOCYTE COUNT,[4],15.5 x10E3/uL
same,LYMPHOCYTE,[4],85.67%
same,MEAN CORPUSCULAR HEMOGLOBIN,[4],25.47 pg
same,MEAN CORPUSCULAR HEMOGLOBIN CONCENTRATION,[4],42.53 G/DL
same,MEAN CORPUSCULAR VOLUME,[4],59.87 fL
same,MONOCYTE,[4],2%
same,NEUTROPHIL,[4],12.33%
same,PLATELET COUNT,[4],1161.67 x10E3/uL
same,ALANINE AMINOTRANSFERASE,[4],32 u/L
same,ALBUMIN,[4],3.63 G/DL
same,ALKALINE PHOSPHATASE,[4],344.33 u/L
same,ASPARTATE AMINOTRANSFERASE,[4],54 u/L
same,BLOOD UREA NITROGEN,[4],12.67 mg/dL
same,CHLORIDE,[4],103 MEQ/L
same,CHOLESTEROL,[4],67.33 mg/dL
same,CREATINE PHOSPHOKINASE,[4],106 u/L
same,CREATININE,[4],0.57 mg/dL
same,GLUCOSE,[4],184.33 mg/dL
same,PHOSPHORUS,[4],12.4 mg/dL
same,POTASSIUM,[4],6.33 MEQ/L
same,SODIUM,[4],150.33 MEQ/L
same,TOTAL BILIRUBIN,[4],0.37 mg/dL
same,TOTAL PROTEIN,[4],6.6 G/DL
same,BASOPHIL,[5],0%
same,EOSINOPHIL,[5],0.33%
same,ERYTHROCYTE COUNT,[5],6.15 x10E6/uL
same,HEMATOCRIT,[5],36.57%
same,HEMOGLOBIN,[5],14.57 G/DL
same,LEUKOCYTE COUNT,[5],11.57 x10E3/uL
same,LYMPHOCYTE,[5],88%
same,MEAN CORPUSCULAR HEMOGLOBIN,[5],23.7 pg
same,MEAN CORPUSCULAR HEMOGLOBIN CONCENTRATION,[5],39.83 G/DL
same,MEAN CORPUSCULAR VOLUME,[5],59.5 fL
same,MONOCYTE,[5],2.67%
same,NEUTROPHIL,[5],9%
same,PLATELET COUNT,[5],1311.33 x10E3/uL
same,ALANINE AMINOTRANSFERASE,[5],35.33 u/L
same,ALBUMIN,[5],3.7 G/DL
same,ALKALINE PHOSPHATASE,[5],375 u/L
same,ASPARTATE AMINOTRANSFERASE,[5],63.67 u/L
same,BLOOD UREA NITROGEN,[5],12 mg/dL
same,CHLORIDE,[5],101.67 MEQ/L
same,CHOLESTEROL,[5],59.33 mg/dL
same,CREATINE PHOSPHOKINASE,[5],117 u/L
same,CREATININE,[5],0.53 mg/dL
same,GLUCOSE,[5],189 mg/dL
same,PHOSPHORUS,[5],12.73 mg/dL
same,POTASSIUM,[5],6.83 MEQ/L
same,SODIUM,[5],150 MEQ/L
same,TOTAL BILIRUBIN,[5],0.37 mg/dL
same,TOTAL PROTEIN,[5],6.53 G/DL
same,BASOPHIL,[6],0%
same,EOSINOPHIL,[6],0.33%
same,ERYTHROCYTE COUNT,[6],6.22 x10E6/uL
same,HEMATOCRIT,[6],37.53%
same,HEMOGLOBIN,[6],14.57 G/DL
same,LEUKOCYTE COUNT,[6],11.73 x10E3/uL
same,LYMPHOCYTE,[6],88.33%
same,MEAN CORPUSCULAR HEMOGLOBIN,[6],23.43 pg
same,MEAN CORPUSCULAR HEMOGLOBIN CONCENTRATION,[6],38.8 G/DL
same,MEAN CORPUSCULAR VOLUME,[6],60.47 fL
same,MONOCYTE,[6],2.33%
same,NEUTROPHIL,[6],9%
same,PLATELET COUNT,[6],1085 x10E3/uL
same,ALANINE AMINOTRANSFERASE,[6],38 u/L
same,ALBUMIN,[6],3.53 G/DL
same,ALKALINE PHOSPHATASE,[6],295.33 u/L
same,ASPARTATE AMINOTRANSFERASE,[6],62.67 u/L
same,BLOOD UREA NITROGEN,[6],13.33 mg/dL
same,CHLORIDE,[6],104.67 MEQ/L
same,CHOLESTEROL,[6],62 mg/dL
same,CREATINE PHOSPHOKINASE,[6],114.67 u/L
same,CREATININE,[6],0.6 mg/dL
same,GLUCOSE,[6],171 mg/dL
same,PHOSPHORUS,[6],12.57 mg/dL
same,POTASSIUM,[6],6.4 MEQ/L
same,SODIUM,[6],152.33 MEQ/L
same,TOTAL BILIRUBIN,[6],0.27 mg/dL
same,TOTAL PROTEIN,[6],6.33 G/DL
